Test results: PMC9061853, “Luminescent bis(benzo[d]thiazolyl)quinoxaline: facile synthesis, nucleic acid and protein BSA interaction, live-cell imaging, biopharmaceutical research and cancer theranostic application” (RSC Advances, 2019)

How the values were obtained:
CT-DNA = test: Ethidium bromide displacement assay (fluorescence); assay type: binding
Experimental: DNA is one of the key target for cancer therapy. The drug molecules bind with the DNA by three major modes (i) electrostatic interactions with the DNA double helix (ii) binding to grooves of DNA (iii) intercalation between the base pairs of DNA.[25] The titration in UV was performed by increasing concentration of DNA from 10–60 μM into a fixed drug concentration (20 μM). The intra-ligand absorption bands around 290–350 nm (π–π* transition) were used in observation of the interaction of DNA and compound 7e (Fig. S3a ^†). There was a hypochromic shift with a slight blue shift in the wavelength of compound 7e was observed which concluded that complex 7e bind to DNA through intercalative binding mode.[26] […] Ethidium bromide, a nonspecific intercalator, gives a strong fluorescence while intercalating DNA base pairs. This enhanced fluorescence can be quenched by another chemical moiety which can competitively replace EtBr and binds to the same site.[27] […] The original fluorescence intensity of EtBr–DNA complex is rapidly quenched by increasing the concentration of compound 7e (Fig. S3c ^†). […]
EtBr displacement is periodically used as a diagnostic approach to determine the capability of compounds to bind with DNA [4]. EtBr emits intense fluorescence when it intercalates with CT-DNA, whereas in its free form in buffer (5 mM Tris-HCl/50mM NaCl buffer, pH 7.4) there is no apparent florescence emission. […] The binding capacity of drug complex with CT-DNA was estimated by quenching of fluorescence intensity. […]
Κapp ×[Complex]50 = ΚEtBr ×[EtBr ](3) where Kapp is the apparent binding constant of the complex, [Complex]50 is the concentration of the complex at 50% fluorescence quenching of DNA-bound ethidium bromide, KEB is the binding constant of the EB (KEtBr = 1.0 x 107 M-1), and [EB] is the concentration of ethidium bromide (8 μM). The Stern-Volmer quenching constant (K SV) has been determined quantitatively by using Stern-Volmer equation. Stern-Volmer plots of I0/I vs. [complex] were made using the corrected fluorescence data taking into account the effect of dilution. […]

[1] = Buffer stability (LC-MS/MS); assay type: physicochemical; details: pH 7.4 buffer, read-out: % Remaining in 120 min
Experimental: LC-MS/MS methods were developed for compound 7g to quantify the drug concentration and in vitro study (i.e. buffer solubility, buffer stability, metabolic stability, and permeability) in a systemic manner (Table 4). Chromatographic elution conditions were set with the use of 5 mM ammonium formate containing 0.1% formic acid and acetonitrile containing 0.1% formic acid with C8, Kromasil, and 4.6 × […] as a stationary phase (Fig. S5a and b ^†). […] For the data analysis, % accuracy of compound 7g was calculated and it was soluble up to 25 μM (Fig. 3, eqn (7) ^†).
The in vitro solubility and stability of 7g were evaluated in pH 7.4 buffer. The buffer solubility and stability studies were conducted at six different concentrations ranging from 3.13 to 100 μM. For the data analysis, % stability of compound 7g at 120 min was calculated with respect to 0 min time point samples and it was stable up to 2 hours in pH 7.4 buffers. Data analysis was performed through the eqn (8) ^† and was tabulated (Table 4). Compound 7g found to be stable up to 2 hours with % remaining of 71% in pH 7.4.

[2] = Caco-2 permeability study; assay type: in vitro ADME; details: human, Caco-2, 10 μM, N = 3
Experimental: (§1) Compound 7g permeation ability (i.e. permeability) was assessed through Caco-2 cell monolayer. Permeability study was planned in both directions from apical to basolateral (A to B) and basolateral to apical (B to A) side. A to B is for checking drug permeation characteristics from the intestine (site of absorption) to systemic circulation and B to A is for checking drug efflux back to the intestine.

Caco-2 cell monolayer = test: Caco-2 permeability study; assay type: in vitro ADME; details: 10 μM, A to B and B to A; samples below the lower limit of quantitation
Experimental: as §1

[3] = Metabolic stability in human liver microsomes; assay type: in vitro ADME; details: for % Metabolism in 30 min: 0.5 μM, 0.5 mg ml^−1 protein, NADPH, 37 °C; for half-life at 0.5 μM: human, liver microsomes
Experimental: The in vitro metabolic rate of 7g was determined in liver microsomes and the intrinsic clearance (CLintr) was estimated. The study was conducted at 0.5 μM substrate concentration and microsomal protein concentration of 0.5 mg ml^−1. Metabolic stability study in the presence of microsomes and cofactor NADPH was performed at 37 °C, 60 rpm for 30 min time duration. NADPH free control incubation was performed simultaneously for 30 min to understand if there are any non-enzymatic metabolism related issues. […] Intrinsic clearance as given in Table 6, was calculated using eqn (8). ^†

remaining at 2 h, 3.13 μM ([1]; 3.13 μM) | remaining at 2 h, 6.25 μM ([1]; 6.25 μM) | remaining at 2 h, 12.5 μM ([1]; 12.50 μM) | remaining at 2 h, 25 μM ([1]; 25.00 μM) | remaining at 2 h, 50 μM ([1]; 50.00 μM) | remaining at 2 h, 100 μM ([1]; 100.00 μM) | recovery at 10 μM ([2]; A to B) | recovery at 10 μM ([2]; B to A) | permeability across Caco-2 cell monolayer (Caco-2 cell monolayer) | CLint ([3]; HLM set 1) | % Metabolism in 30 min ([3]; HLM set 1) | CLint ([3]; HLM set 2) | % Metabolism in 30 min ([3]; HLM set 2) | half-life at 0.5 μM ([3]; HLM set 1) | half-life at 0.5 μM ([3]; HLM set 2) | Structure (SMILES) | K sv, Stern–Volmer quenching constant (CT-DNA; EtBr–DNA fluorescence quenching) | [7e]50, concentration at 50% fluorescence quenching of DNA-bound ethidium bromide (CT-DNA; [DNA] = 120 μM, [EtBr] = 8 μM, Tris HCl/NaCl buffer pH 7.2) | K app, apparent DNA binding constant (CT-DNA; competitive displacement of EtBr, fluorescence)
 |  |  |  |  |  |  |  |  |  |  |  |  |  |  | Clc1cc2nc(COc3ccccc3-c3nc4ccccc4s3)c(COc3ccccc3-c3nc4ccccc4s3)nc2cc1Cl [Compound 7e] | 5500 M⁻¹ | 140 µM | 570000 M⁻¹
59% | 68% | 81% | 110% | 110% | 71% | 101% | 96% | low permeability | 28 μl per min per mg protein | 35% | 25 μl per min per mg protein | 38% | 49.3 min | 55.9 min | COc1ccc2nc(COc3ccccc3-c3nc4ccccc4s3)c(COc3ccccc3-c3nc4ccccc4s3)nc2c1 [Compound 7g, 2,2'-((((6-methoxyquinoxaline-2,3-diyl)bis(methylene))bis(oxy))bis(2,1-phenylene))bis(benzo[d]thiazole)] |  |  | 
